Tests used:
[1] = mouse, in vivo
brain tumors = conditions: human, in vivo
U138 cells = format: cell-based, human
[2] = mouse, in vivo; remark: listed apart in the source
[3] = test system: U-87MG orthotopic glioblastoma; conditions: mouse, in vivo
T98G cells = format: cell-based, human
[4] = test system: U-87MG orthotopic glioblastoma; conditions: mouse, in vivo; remark: listed apart in the source
U-87MG cells = format: cell-based, human
U373 cells = format: cell-based, human

Q: With sodium meta arsenite as the substance, how does the “Crossing of the blood brain barrier” value [1] read?
A: Its value is “can readily cross the blood brain barrier”.

Q: What about the “MRI finding on brain tumor” value (brain tumors) of the same substance?
A: The value was “brain tumor was completely gone”.

Q: What about the Side effects (brain tumors) of the same substance?
A: Its Side effects is “Pt # 1 did not find any particular”.

Q: And the “Time until pain lessened” value (brain tumors)?
A: Its value is “side effects, and within 5 days them”.

Q: And the “Effect on lung cancer” value (brain tumors; iv)?
A: Its value is “conditions appear to be stable”.

Q: What about the “Effect on tumor in the brain” value (brain tumors; iv) of the same substance?
A: Its value is “the tumor in the brain disappeared”.

Q: What about the “Anticancer effect (cell viability) vs control” value (from here on “Anticancer effect … vs control”) (U138 cells) of the same substance?
A: Its value is “significant anticancer effects”.

Q: And the “Dose dependence of anticancer effect” value (U138 cells)?
A: Its value is “dose-dependent anticancer effects”.

Q: And the “Adverse effects following oral and IV administration” value [2]?
A: Its value is “No adverse effects were observed”.

Q: What about the “Clinical signs during testing” value [2] of the same substance?
A: The value was “No clinical signs were observed”.

Q: What about the “Body weight difference between groups” value [3] of the same substance?
A: The value was “no significant difference”.

Q: What about the “Inhibition of tumor growth” value ([3]; po, 1.25 mg/kg) of the same substance?
A: The value was 28%.

Q: What about the Tumor mass ([3]; po, 1.25 mg/kg) of the same substance?
A: Its Tumor mass is 40.2±12.3 mm^3.

Q: What about the “MRI imaging of tumor mass” value ([3]; po, 5 mg/kg) of the same substance?
A: The value was “decrease of tumor mass”.

Q: And the “Anticancer effect … vs control” value (T98G cells)?
A: The value was “significant anticancer effects”.

Q: What about the “Dose dependence of anticancer effect” value (T98G cells) of the same substance?
A: The value was “dose-dependent anticancer effects”.

Q: What about the “Serum ALT and AST difference between the groups” value [4] of the same substance?
A: Its value is “no significant difference”.

Q: What about the Anticancer effect ([4]; po, 10 mg/kg) of the same substance?
A: Its Anticancer effect is “no anticancer effect”.

Q: What about the “Anticancer effect … vs control” value (U-87MG cells) of the same substance?
A: The value was “significant anticancer effects”.

Q: What about the “Dose dependence of anticancer effect” value (U-87MG cells) of the same substance?
A: Its value is “dose-dependent anticancer effects”.

Q: What about the “Anticancer effect … vs control” value (U373 cells) of the same substance?
A: Its value is “significant anticancer effects”.

Q: And the “Dose dependence of anticancer effect” value (U373 cells)?
A: Its value is “dose-dependent anticancer effects”.
